The values that follow are results of earlier work, collected in patent publication US20230080958A1, “METHODS OF TREATING PSEUDOBULBAR AFFECT AND OTHER EMOTIONAL DISTURBANCES” (Woolsey Pharmaceuticals, Inc., priority 2020, published 2023).

For data set [1] the following is noted: 1-hydroxy (M3) metabolite, in vivo (Shibuya 2001).
The subject of data set [2] is patients with sub-cortical vascular dementia.

Structures are written as SMILES.

`O=S(=O)(c1cccc2c(O)nccc12)N1CCCNCC1` [M3]: the half-life entry in data set [1] is on record as “about 8 hours”.
As for `O=S(=O)(c1cccc2cnccc12)N1CCCNCC1` [fasudil, hexahydro-1-(5-isoquinolinesulfonyl)-1H-1,4-diazepine], the “emotional incontinence (compulsive laughing and/or crying)” value in data set [2] (Kamei publication and Japanese patent application 6-293643, three patients, no assessment or diagnosis of PBA) was “improvements”. For the same molecule, the “wandering (primary outcome)” value in data set [2] (two patients with sub-cortical vascular dementia, open-label, no control group, concomitant medications (Kamei 1996)) was “mitigated wandering”.
